Data taken from patent publication US7314719B2, “Method for increasing productivity of secondary metabolite by conferring drug-resistant mutations” (priority 2001, dated 2008).
Read-outs that look alike come from different tables or passages of the source.

Tests used:
[1] = tested on: S. coelicolor 1147 (wild type) and mutants S-1, SG-1, SG-2; assay: MIC of antibiotics on GYM agar (screening of drug-resistant mutants); format: cell-based, Streptomyces coelicolor; details: for Concentration at which growth was inhibited completely: GYM agar; for MIC: 2 days of incubation on GYM agar
Experimental: The spontaneous streptomycin, gentamicin or rifampicin-resistant mutants of S. coelicolor were obtained as the colonies that grew within 7 days at 30° C. after spores (or cells) were spread on GYM agar (composition is the same as the above GYM agar) containing 5 μg streptomycin per ml or 1.0 μg of gentamicin per ml or 200 μg of rifampicin per ml, respectively (Growth of parental strain was inhibited completely with 1 μg of streptomycin per ml, 0.1 μg of gentamicin per ml or 10 μg of rifampicin per ml). The single colonies grew on screening plates were picked out and inoculated to R4 agar containing 1% of glucose, 0.1% of yeast extract, 0.001% of Casamino Acids, 0.3% of proline, 1% of MgCl2·6H2O, 0.4% of CaCl2·2H2O, 0.002% of K2SO4, 0.56% of TES [N-Tris (hydroxymethyl)methyl-2-aminoethanesulfonic acid], 0.2% of trace elements solution (as described for R2YE medium) and 2% of agar (before adding agar, adjusted to pH 7.2). The R4 plates were incubated at 30° C. for 6 days and the amount of blue pigment actinorhodin produced was compared among wild type strain and mutants, and selected the over-producers among the mutants. Then, the mutants with over-producing actinorhodin were inoculated into R4 liquid medium (composition is the same as the R4 agar, but no agar) in 25 ml of test tubes containing 5 ml medium on an orbital shaker at 30° C., 350 rpm. After incubation for 6 days, 1 ml culture samples were taken and adjusted pH to 8.0. After centrifugation at 1100 g for 5 min., actinorhodin production in supernatants was assayed by measurement of the optical density of supernatants at 633 nm. The highest productivity detected reached 1.6-fold for gentamicin-resistant mutants, 1.8-fold for streptomycin-resistant mutants and 3.0-fold for rifampicin-resistant mutants. The frequencies for such high producers were 5%, 6% and 10%, respectively (see Table 1 and FIG. 7).
The spontaneous geneticin, gentamicin or rifampicin-resistant mutants of S-1 were obtained as colonies that grew on GYM agar containing 2.5 μg of geneticin per ml or 2.5 μg of gentamicin per ml or 200 μg of rifampicin per ml. (Growth of S-1 strain was inhibited completely with 0.5 μg of geneticin per ml, 0.5 μg of gentamicin per ml or 10 μg of rifampicin per ml.). Actinorhodin productivity of mutants was examined using R4 agar plates and R4 liquid medium.
The spontaneous rifampicin-resistant mutants of SG-1 and SG-2 strains were obtained as colonies that grew on GYM agar containing 200 μg of rifampicin per ml.

[2] = tested on: S. coelicolor 1147 and drug-resistant mutants; assay: Resistance level to antibiotics on GYM agar (Table 2); format: cell-based, Streptomyces coelicolor; details: 4 days on GYM agar
[3] = tested on: Bacillus cereus No. 2045 and mutants; assay: Resistance level to gentamicin and rifampicin (Table 4); format: cell-based
Experimental: A gentamicin-resistant mutant and a rifampicin-and gentamicin-resistant mutant of Bacillus cereus No. 2045 were produced according to a similar manner to that of Examples 1, 2 or 3. Those mutants were precultured in bouillon medium for 10 h. Cells (0.1 ml) were inoculated into 5 ml of production medium consisting of (per liter) 20 g of polypeptone, 20 g of corn steep liquor, and 5 g of NaCl (adjusted to pH 7.5 with NaOH) for 2 days at 30° C.

[4] = tested on: Streptomyces lividans 66 and mutants; assay: Resistance level to rifampicin and streptomycin (Table 5); format: cell-based
Source text: A rifampicin-resistant mutant and a streptomycin-and rifampicin-resistant mutant of Streptomyces lividans 66 were produced according to a similar manner to that of Examples 1, 2 or 3, and the actinorhodin production was estimated.

[5] = cited from earlier work
[6] = Streptomyces coelicolor, 48 h, strain S. coelicolor 1147 (wild type), read-out: MIC
[7] = parental strain (S. coelicolor wild type)
[8] = strain B. cereus No. 2045, wild-type
[9] = strain S. lividans 66, wild-type

CN[C@@H]1[C@@H](O)[C@@H](O[C@@H]2[C@@H](O)[C@H](O[C@H]3O[C@H]([C@@H](C)O)[C@@H](O)[C@H](O)[C@H]3N)[C@@H](N)C[C@H]2N)OC[C@]1(C)O [Geneticin, geneticin]
Concentration at which growth was inhibited completely ([1]; S-1 strain): 0.5 μg per ml | MIC ([1]; Streptomyces coelicolor, 48 h, strain S-1 (str), read-out: MIC): 0.2 µg/mL | Resistance level ([2]; strain 1147 (wild type)): 0.2 µg/mL | Resistance level ([2]; strain SGe-1): 0.5 µg/mL | Resistance level ([2]; strain SGe-2): 1 µg/mL | Resistance level ([2]; strain SGe-3): 1 µg/mL

CO[C@H]1/C=C/O[C@@]2(C)Oc3c(C)c(O)c4c(O)c(c(/C=N/N5CCN(C)CC5)c(O)c4c3C2=O)NC(=O)/C(C)=C\C=C\[C@H](C)[C@H](O)[C@@H](C)[C@@H](O)[C@@H](C)[C@H](OC(C)=O)[C@@H]1C [Rifampicin, rifampicin]
Concentration at which growth was inhibited completely ([1]; S-1 strain): 10 μg per ml | Concentration at which growth was inhibited completely ([1]; SG-1 strain): 10 μg per ml | Concentration at which growth was inhibited completely ([1]; SG-2 strain): 10 μg per ml | MIC [1, 6]: 10 µg/mL | Concentration at which growth was inhibited completely [1, 7]: 10 μg per ml | MIC ([1]; strain S-1 (str)): Rifampicin(10) μg/ml | MIC ([1]; strain SG-1 (str-gen)): Rifampicin(10) μg/ml | MIC ([1]; strain SG-2 (str-gen)): Rifampicin(10) μg/ml | Resistance level ([2]; S. coelicolor strain SR-1): 50 µg/mL | Resistance level ([2]; S. coelicolor strain SR-2): 150 µg/mL | Resistance level ([2]; S. coelicolor strain SR-3): 400 µg/mL | Resistance level ([2]; strain 1147 (wild type)): 10 µg/mL | Resistance level ([2]; strain R-1): 400 µg/mL | Resistance level ([2]; strain R-2): 400 µg/mL | Resistance level ([2]; strain R-3): 400 µg/mL | Resistance level ([2]; strain SGR-1): 400 µg/mL | Resistance level ([2]; strain SGR-2): 400 µg/mL | Resistance level ([2]; strain SGR-3): 300 µg/mL | Resistance level ([2]; strain SGR-4): 400 µg/mL | Resistance level ([2]; strain SGR-5): 400 µg/mL | Resistance level ([2]; strain SGR-6): 300 µg/mL | Resistance level ([2]; strain SR-4): 400 µg/mL | Resistance level ([2]; strain SR-5): 400 µg/mL | Resistance level ([2]; strain SR-6): 400 µg/mL | Resistance level ([2]; strain SR-7): 400 µg/mL | Resistance level [3, 8]: 1.0 µg/mL | Resistance level ([3]; strain BG-1 (gen)): 1.0 µg/mL | Resistance level ([3]; strain BG-2 (gen)): 0.8 µg/mL | Resistance level ([3]; strain BG-3 (gen)): 1.0 µg/mL | Resistance level ([3]; strain BGR-1 (gen-rif)): 100 µg/mL | Resistance level ([3]; strain BGR-2 (gen-rif)): 120 µg/mL | Resistance level ([3]; strain BGR-3 (gen-rif)): 150 µg/mL | Resistance level ([4]; S. lividans strain SR-1 (rif)): 200 µg/mL | Resistance level ([4]; S. lividans strain SR-2 (rif)): 400 µg/mL | Resistance level ([4]; S. lividans strain SR-3 (rif)): 400 µg/mL | Resistance level [4, 9]: 10 µg/mL | Resistance level ([4]; strain SRS-1 (rif-str)): 400 µg/mL | Resistance level ([4]; strain SRS-2 (rif-str)): 350 µg/mL | Resistance level ([4]; strain SRS-3 (rif-str)): 400 µg/mL

[H]/N=C(/N)N[C@H]1[C@H](O)[C@@H](O)[C@H](O[C@@H]2O[C@@H](C)[C@](O)(C=O)[C@H]2O[C@@H]2O[C@@H](CO)[C@H](O)[C@@H](O)[C@@H]2NC)[C@@H](N/C(N)=N\[H])[C@@H]1O [Streptomycin, streptomycin]
MIC [1, 6]: 1 µg/mL | Concentration at which growth was inhibited completely [1, 7]: 1 μg per ml | Resistance level ([2]; S. coelicolor strain SR-1): 50 µg/mL | Resistance level ([2]; S. coelicolor strain SR-2): 50 µg/mL | Resistance level ([2]; S. coelicolor strain SR-3): 50 µg/mL | Resistance level ([2]; strain 1147 (wild type)): 1 µg/mL | Resistance level ([2]; strain S-1): 100 µg/mL | Resistance level ([2]; strain S-2): 5 µg/mL | Resistance level ([2]; strain S-3): 10 µg/mL | Resistance level ([2]; strain SG-1): 100 µg/mL | Resistance level ([2]; strain SG-2): 100 µg/mL | Resistance level ([2]; strain SG-3): 100 µg/mL | Resistance level ([2]; strain SGR-1): 100 µg/mL | Resistance level ([2]; strain SGR-2): 100 µg/mL | Resistance level ([2]; strain SGR-3): 50 µg/mL | Resistance level ([2]; strain SGR-4): 50 µg/mL | Resistance level ([2]; strain SGR-5): 50 µg/mL | Resistance level ([2]; strain SGR-6): 100 µg/mL | Resistance level ([2]; strain SGe-1): 100 µg/mL | Resistance level ([2]; strain SGe-2): 100 µg/mL | Resistance level ([2]; strain SGe-3): 100 µg/mL | Resistance level ([2]; strain SR-4): 100 µg/mL | Resistance level ([2]; strain SR-5): 100 µg/mL | Resistance level ([2]; strain SR-6): 50 µg/mL | Resistance level ([2]; strain SR-7): 50 µg/mL | Resistance level ([4]; S. lividans strain SR-1 (rif)): 1.0 µg/mL | Resistance level ([4]; S. lividans strain SR-2 (rif)): 0.8 µg/mL | Resistance level ([4]; S. lividans strain SR-3 (rif)): 1.0 µg/mL | Resistance level [4, 9]: 1.0 µg/mL | Resistance level ([4]; strain SRS-1 (rif-str)): 50 µg/mL | Resistance level ([4]; strain SRS-2 (rif-str)): 120 µg/mL | Resistance level ([4]; strain SRS-3 (rif-str)): 100 µg/mL

C[C@H]1O[C@H](CC(=O)O)Cc2c1c(O)c1c(O)c(-c3cc(=O)c4c(=O)c5c(c(=O)c=4c3=O)[C@@H](C)O[C@H](CC(=O)O)C5)cc(O)c1c2O [actinorhodin]
Solubility ([5]; in alcohol, acetic acid, acetone): slightly soluble | Solubility ([5]; in aq acid): Practically insol | Solubility ([5]; in aq alkali (bright blue color)): sol | Solubility ([5]; in piperidine, tetrahydrofuran, dioxane, phenol): Soluble

gentamicin
Concentration at which growth was inhibited completely ([1]; S-1 strain): 0.5 μg per ml | Concentration at which growth was inhibited completely [1, 7]: 0.1 μg per ml | MIC ([1]; strain S-1 (str)): Gentamicin(0.1) μg/ml | MIC ([1]; strain S. coelicolor 1147 (wild type)): Gentamicin (0.1) μg/ml | Resistance level ([2]; strain 1147 (wild type)): 0.1 µg/mL | Resistance level ([2]; strain G-1): 0.3 µg/mL | Resistance level ([2]; strain G-2): 0.3 µg/mL | Resistance level ([2]; strain G-3): 0.3 µg/mL | Resistance level ([2]; strain SG-1): 0.3 µg/mL | Resistance level ([2]; strain SG-2): 0.3 µg/mL | Resistance level ([2]; strain SG-3): 0.3 µg/mL | Resistance level ([2]; strain SGR-1): 0.2 µg/mL | Resistance level ([2]; strain SGR-2): 0.2 µg/mL | Resistance level ([2]; strain SGR-3): 0.3 µg/mL | Resistance level ([2]; strain SGR-4): 0.2 µg/mL | Resistance level ([2]; strain SGR-5): 0.5 µg/mL | Resistance level ([2]; strain SGR-6): 0.3 µg/mL | Resistance level [3, 8]: 0.8 µg/mL | Resistance level ([3]; strain BG-1 (gen)): 4.0 µg/mL | Resistance level ([3]; strain BG-2 (gen)): 4.0 µg/mL | Resistance level ([3]; strain BG-3 (gen)): 4.5 µg/mL | Resistance level ([3]; strain BGR-1 (gen-rif)): 4.5 µg/mL | Resistance level ([3]; strain BGR-2 (gen-rif)): 5.0 µg/mL | Resistance level ([3]; strain BGR-3 (gen-rif)): 5.0 µg/mL
